Key:
Pannexin 1 (PANX1) [1] = biological target: T1, Pannexin 1 (PANX1) (Homo sapiens, UniProt Q96RD7); assay: To-Pro-3 uptake in HEK293T cells at […]; type: cell-based; parameters: C-terminally truncated hPANX1-CT-EGFP; settings: HEK-293T; read-out: Mean ± SEM ^a)
Pannexin 1 (PANX1) [2] = biological target: T1, Pannexin 1 (PANX1); assay: whole-cell voltage clamp in HEK293T cells (-50 mV); CETSA (Tagg […] to […] °C); type: cell-based; parameters: hPANX1(TEV)-EGFP cleaved by TEVp (currents); full-length hPANX1-FLAG (CETSA)

T1 sequence (Q96RD7 1-379 limits assumed): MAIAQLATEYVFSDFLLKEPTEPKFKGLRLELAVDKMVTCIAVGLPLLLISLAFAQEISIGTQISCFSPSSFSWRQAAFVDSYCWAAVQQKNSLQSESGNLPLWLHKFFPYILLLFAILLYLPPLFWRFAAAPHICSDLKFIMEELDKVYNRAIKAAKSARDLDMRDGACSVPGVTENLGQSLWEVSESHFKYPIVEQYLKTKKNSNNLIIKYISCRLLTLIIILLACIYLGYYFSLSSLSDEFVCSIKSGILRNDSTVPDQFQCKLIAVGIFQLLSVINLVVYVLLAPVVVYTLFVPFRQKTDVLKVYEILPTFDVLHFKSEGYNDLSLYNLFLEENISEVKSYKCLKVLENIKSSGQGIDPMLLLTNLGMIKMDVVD

Row | inhibition at 20 µM (Pannexin 1 (PANX1) [1]) | IC50 (Pannexin 1 (PANX1) [2]) | Compound
1 | 87.3 ± 1.3% | – | N[C@@H]1[C@H]2CN(c3nc4c(cc3F)c(=O)c(C(=O)O)cn4-c3ccc(F)cc3F)C[C@@H]12 [Trovan, trovafloxacin]
2 | – | ~730 nM | COc1ccc(Cn2cc(C(=O)O)c(=O)c3cc(F)c(N4CCN(C)CC4)nc32)c(OC)c1 [compound 12, lithium 1‐(2,4‐dimethoxybenzyl)−6‐fluoro‐7‐(4‐methylpiperazin‐1‐yl)−4‐oxo‐1,4‐dihydro‐1,8‐naphthyridine‐3‐carboxylate]

Reference: paper PMC11831487, “Novel Naphthyridones Targeting Pannexin 1 for Colitis Management” (Advanced Science, 2024)
